From patent publication US11787850B2, “Peptidic TGF-beta antagonists” (priority 2015, dated 2023)

Assays:
Type in all cases: cell-based
[1] = system: human keratinocyte HaCat cell migration; assay: Wound closure assay, HaCat keratinocytes; conditions: 10 nM peptide, 100 pM TGF-β, 24 hours (FIG. 28)
Description: FIGS. 28A and 28B show the results of wound closure assays performed using human keratinocyte HaCat cells. […] (FIG. 28A) Human Keratinocyte HaCat cells were starved for 24 hours, scratched with pipette tips, and then treated with 100 pM TGF-β and 10 nM CD109-based peptides as indicated for 24 hours. Microscopy images were taken at time 0 and 24 hours of treatment. (FIG. 28B) Migration distances were measured using the Image J software platform. Error bars represent mean+/−standard deviation, asterisk designates a P value of <0.05.

[2] = system: TGF-β-induced fibrotic response in human fibroblasts; assay: Immunoblot of fibrotic markers in human primary fibroblasts; conditions: 100 pM TGF-β, different dosage of P16, 24 hrs (FIG. 34)
Description: Human primary fibroblasts were starved for 36 hours, then treated with 20 pM TGF-β and 10 nM CD109-based peptide as indicated for 24 hours. (FIG. 29A) Cell lysates were separated by gel electrophoresis, transferred to a membrane, and immunoblotted with antibodies against fibronectin, PAI-1, CTGF, and α-tubulin. (FIG. 29B) The data shown represent the mean expression levels of 3 different biological replicates calculated by densitometry of fibronectin, PAI-1, and CTGF intensity levels normalized to α-tubulin. Error bars represent the standard deviation of the replicate experiments. A single asterisk designates a t test P value of less than 0.05, and a double asterisk indicates a P value of less than 0.01.
Human fibroblasts were starved for 36 hours, then treated with 100 pM TGF-β and different dosage of P16 for 24 hrs. (FIG. 34A) Cell lysates were separated by gel electrophoresis, transferred to a membrane, and immunoblotted with antibodies against each of the indicated proteins. (FIG. 34B) Densitometry analysis was subsequently carried out to quantitate the expression of each of the indicated proteins as a function of P16 concentration.

[3] = system: TGF-β-induced epithelial-mesenchymal transition (EMT) response in squamous cell carcinoma (A431) cells; assay: Immunoblot of EMT markers in A431 cells
Description: (FIG. 26A) Immunoblot analysis was carried out using cell lysates of A431 cells following incubation with TGF-β, P16, or scrambled control (P16.2) as indicated to determine expression of proteins involved in the EMT response. (FIG. 26B) Densitometry analysis was subsequently performed using the developed immunoblot to illustrate the relative expression of each protein as a function as P16 concentration as indicated.
A431 cancer cells treated with 10 nM of P16.2 (negative peptide control), P12, P16 or PA in the absence or presence of 100 pM TGF-b, followed by 24 hrs of incubation. Cells lysates were analyzed by Western blot for the expression of Fibronectin (mesenchymal marker), Snail and Twist (EMT markers). Actin expression was used as loading control.

[4] = system: TGF-b induced cellular invasion of squamous cell carcinoma (A431) cells; assay: Matrigel invasion assay, A431 cells; conditions: 10 nM peptide, 100 pM TGF-b, 24 hrs (FIG. 38)
Description: A431 cancer cells (8000 cells) were seeded on a BioCoat™ Matrigel® Invasion Chamber and treated with 10 nM of P16.2 (negative peptide control), P16 or PA in the absence or presence of 100 pM TGF-b, followed by 24 hrs of incubation. Invasive cells (in the lower chambers) were stained by crystal violet dye, photographed and counted. Representative photos (A) and statistical plots of invasion (B) are shown. The data are shown as mean±SD of the number of invasive cells for three independent experiments. **P<0.01 and ***P<0.001 as compared with controls. […] Squamous cell carcinoma (epidermoid A431 and head and neck FaDu) cells were stimulated with 100 pM of TGF-b1, then treated with 10 nM of peptide 16.2, P16, PA or CD109 for 24 hours. Cells were analysed by Flow cytometry and CD133 positive cell population, which represent cancer stem cell population, were quantified.

[5] = system: TGF-β-induced migration of squamous cell carcinoma (A431) cells; assay: Scratch (wound closure) migration assay, A431 cells; conditions: 100 pM TGF-β1, 24 hours, P16 concentrations as indicated (FIG. 27)
Description: FIG. 10A and FIG. 10B illustrate that peptides B, E and X-1 inhibit TGF-β-induced cellular migration of A431 cells in vitro. Results are shown prior to treatment (0 hr, top panels) and after treatment (24 hr, bottom panels) for each of the peptides used. (See FIG. 2 and Table 1 for the amino acid sequence identity of the peptides).
A431 cells were grown to 80-90% confluence and serum-starved overnight. The next day, cells were scratched with a plastic pipette tip (time 0 hour) and then left untreated or treated for 24 hours with 100 pM TGF-β1 alone or in the presence of P16 as indicated. (FIG. 27A) Digital images were captured at 0 h and 24 h using an EVOS XL Core microscope. (FIG. 27B) Micrographs were subsequently quantitated to determine the percentage of the wound area that had closed following 24 hours in the presence or absence of P16, as indicated.
Cells were scratched with a pipette tip and treated without or with 100 pM TGF-b1 alone or in the presence of 10 nM Peptide A or Peptide A1 (C31S mutant). Pictures were taken at 0 and 24 hrs. Peptide A but not Peptide A1 inhibits TGF-b-induced migration in A431 cells. Peptide A contains monomeric and dimeric forms whereas Peptide A1 contains a C31S mutation to prevent intermolecular disulfide bond formation so that it forms monomers only.
Squamous cell carcinoma (A431) or breast cancer (MDA-MB-231) cells were grown to 80-90% confluence and serum-starved overnight. The next day, cells were scratched with a plastic pipette tip (time 0 hour) and then left untreated or treated for 24 hours with 100 pM TGF-β1 alone or in the presence of 10 nM peptide B (100 aa), E (67 aa), or X1 (P28, 28 aa). Digital images were captured at 0 h and 24 h (20× magnification) using an EVOS XL Core microscope.

## ETWIWLDTNMGSRIYQ [Peptide P16]
[1]
  suppression of HaCat cell migration: suppress
[2]
  TGF-β-induced expression of fibronectin, collagen (COL1A1), PAI-1, α-SMA and CTGF: attenuate
[3]; 10 nM peptide, 100 pM TGF-b, 24 hrs (FIG. 33)
  inhibition of TGF-b induced EMT response (Fibronectin, Snail, Twist): inhibit
[3]; immunoblot and densitometry, P16 concentrations as indicated (FIG. 26)
  inhibition of TGF-β-induced EMT response in A431 cells, dose-dependent: inhibit
[4]
  inhibition of TGF-b induced cellular invasion: significantly inhibit
[5]
  inhibition of A431 cell migration, dose-dependent: inhibit
